Measurements: patent US10239887B2, “Positive allosteric modulators of the muscarinic acetylcholine receptor M4” (Vanderbilt University, priority 2016, dated 2019)
Counter-ions that a name gives are not always drawn. Like-named read-outs stand apart in the source and are kept apart here.

Target: T1, human mAChR M4 (Homo sapiens, UniProt P08173)
T1 sequence (P08173 1-479): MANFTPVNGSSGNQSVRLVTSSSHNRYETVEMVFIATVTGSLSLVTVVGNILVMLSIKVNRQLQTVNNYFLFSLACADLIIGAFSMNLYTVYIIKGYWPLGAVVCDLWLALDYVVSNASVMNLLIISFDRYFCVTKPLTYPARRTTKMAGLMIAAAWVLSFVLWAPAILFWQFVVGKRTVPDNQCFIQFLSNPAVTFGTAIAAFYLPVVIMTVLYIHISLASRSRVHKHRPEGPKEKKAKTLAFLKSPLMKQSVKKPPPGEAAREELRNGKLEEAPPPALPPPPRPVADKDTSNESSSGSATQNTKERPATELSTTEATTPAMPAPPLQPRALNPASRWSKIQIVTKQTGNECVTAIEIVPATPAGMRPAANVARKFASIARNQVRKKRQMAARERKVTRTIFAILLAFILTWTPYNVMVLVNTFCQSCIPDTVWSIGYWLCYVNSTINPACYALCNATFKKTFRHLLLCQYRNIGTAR
Experiment: mAChR M4 cell-based functional assay (calcium flux), human M4
Conditions: for EC50: calcium flux

[1] = Human M4 EC50 (nM), Table 10, PAM activity with EC20 acetylcholine
[2] = Table 10, % ACh maximum at 30 μM
[3] = Human M4 EC50 (nM), Table 11, PAM activity with EC20 acetylcholine
[4] = Table 11, % ACh maximum at 30 μM
[5] = Human M4, % ACh maximum at 30 μM
[6] = Human M4 EC50, CHO-K1 hM4-Gqi5 cells, increase in EC20 acetylcholine response

EC50 [1] [nM]	Emax [2] [%]	Compound	other results
1300	66.5	Cc1nnc2oc3c(NC4CC4)ncnc3c2c1C [Compound 302, N-cyclopropyl-3,4-dimethyl-pyrimido [4′,5′:4,5]furo[2,3-c]pyridazin-8-amine]	–
378	51	COc1c(F)cc(CNc2ncnc3c2oc2nnc(C)c(C)c23)cc1F [Compound 311, N-[(3,5-difluoro-4-methoxy-phenyl)methyl]-3,4-dimethyl-pyrimido[4′,5′:4,5] furo[2,3-c]pyridazin-8-amine]	–
59.4	73	Cc1nnc2oc3c(NC4CN(c5ccc(F)c(F)c5)C4)ncnc3c2c1C [Compound 297, N-[1-(3,4-difluorophenyl)azetidin-3-yl]-3,4-dimethyl-pyrimido[4′,5′:4,5]furo [2,3-c]pyridazin-8-amine]	–

The remaining lines, values behind:

Compound	EC50 [1] [nM]	Emax [2] [%]	other results
Cc1nc2sc3c(NCc4cccc(C5(O)CCC5)c4)ncnc3c2c(C)c1Cl [Compound 277, 1-[3-[[(8-chloro-7,9-dimethyl-pyrido [3′,2′:4,5]thieno[3,2-d]pyrimidin-4-yl)amino]methyl]phenyl]cyclobutanol]	2320	70.5	–
Cc1nnc2sc3c(NCc4ccc(F)c(C(=O)NC(C)C(C)(C)CO)c4)ncnc3c2c1C (centres unmarked) [Compound 185, 5-[[(3,4-dimethylpyrimido [4′,5′:4,5]thieno[2,3-c]pyridazin-8-yl)amino]methyl]-2-fluoro-N-(3-hydroxy-1,2,2-trimethyl-propyl)benzamide]	794	94.2	–
Cc1nnc2sc3c(N4CC[C@H](Oc5ccc(C(F)(F)F)cn5)C4)ncnc3c2c1C [Compound 360, 3,4-dimethyl-8-[(3S)-3-[[5-(trifluoromethyl)-2-pyridyl]oxy]pyrrolidin-1-yl] pyrimido[4′,5′:4,5]thieno [2,3-c]pyridazine dihydrochloride]	–	–	EC50 [3]: 333 nM; Emax [4]: 56%
Cc1cc(C)c2c(n1)sc1c(N3CC4(COC4)C3)ncnc12 [Compound 195, 6-(7,9-dimethylpyrido [3′,2′:4,5]thieno[3,2-d]pyrimidin-4-yl)-2-oxa-6-azaspiro[3.3]heptane]	–	76.3	–
Cc1nnc2sc3c(NCc4ccc(OCC5CC5)c(F)c4)ncnc3c2c1C [Compound 91, N-[[4-(cyclopropylmethoxy)-3-fluoro-phenyl]methyl]-3,4-dimethyl-pyrimido [4′,5′:4,5]thieno[2,3-c] pyridazin-8-amine]	3130	61.8	–
Cc1nnc2sc3c(N4CC(Oc5cccc(F)c5)C4)ncnc3c2c1C [Compound 32, 8-(3-(3-fluorophenoxy)azetidin-1-yl)-3,4-dimethylpyrimido [4′,5′:4,5]thieno[2,3-c] pyridazine]	–	–	Emax [5]: 62%; EC50 [6]: 1760 nM
Cc1c(Cl)cnc2sc3c(NC4CN(c5cc(Cl)ncc5Cl)C4)ncnc3c12 [Compound 231, 8-chloro-N-[1-(2,5-dichloro-4-pyridyl)azetidin-3-yl]-9-methyl-pyrido [3′,2′:4,5]thieno[3,2-d] pyrimidin-4-amine]	3710	44.3	–
Cc1nc2sc3c(NC4CCC4)ncnc3c2c(C)c1Cl [Compound 266, 8-chloro-N-cyclobutyl-7,9-dimethyl-pyrido [3′,2′:4,5]thieno[3,2-d] pyrimidin-4-amine hydrochloride]	1660	55.5	–
Cc1nnc2sc3c(N4CC[C@H](C(C)(C)O)C4)ncnc3c2c1C [Compound 354, 2-[(3S)-1-(3,4-dimethylpyrimido[4′,5′:4,5]thieno[2,3-c]pyridazin-8-yl)pyrrolidin-3-yl]propan-2-ol]	–	–	EC50 [3]: 362 nM; Emax [4]: 53%
Cc1nnc2sc3c(NCc4ccc(OC(F)F)nc4)ncnc3c2c1C [Compound 90, N-[[6-(difluoromethoxy)-3-pyridyl]methyl]-3,4-dimethyl-pyrimido [4′,5′:4,5]thieno[2,3-c] pyridazin-8-amine]	277	76.7	–
Cc1nnc2sc3c(NC4CC5(C4)CN(c4ncc(Cl)cc4Cl)C5)ncnc3c2c1C [Compound 162, N-[2-(3,5-dichloro-2-pyridyl)-2-azaspiro[3.3]heptan-6-yl]-3,4-dimethyl-pyrimido[4′,5′:4,5]thieno [2,3-c]pyridazin-8-amine]	5630	48.3	–
Cc1nnc2sc3c(NCc4ccc(F)c(C(C)(C)O)c4)ncnc3c2c1C [Compound 175, 2-[5-[[(3,4-dimethylpyrimido [4′,5′:4,5]thieno[2,3-c]pyridazin-8-yl)amino]methyl]-2-fluoro-phenyl]propan-2-ol]	722	52.5	–
Cc1nc2sc3c(NC4CN(c5ncc(F)cn5)C4)ncnc3c2c(C)c1Cl [Compound 263, 8-chloro-N-[1-(5-fluoropyrimidin-2-yl)azetidin-3-yl]-7,9-dimethyl-pyrido[3′,2′:4,5] thieno[3,2-d]pyrimidin-4-amine hydrochloride]	9520	72.6	–
Cc1nc2oc3c(NC4CC4c4ccc(F)c(F)c4)ncnc3c2c(C)c1Cl (centres unmarked) [Compound 51, 8-chloro-N-[2-(3,4-difluorophenyl)cyclopropyl]-7,9-dimethyl-pyrido [3′,2′:4,5]furo[3,2-d]pyrimidin-4-amine hydrochloride]	–	–	Emax [5]: 70%; EC50 [6]: 7840 nM
Cc1nnc2sc3c(N4CC(COc5ccnc(Cl)c5)C4)ncnc3c2c1C [Compound 348, 8-[3-[(2-choro-4-pyridyl)oxymethyl]azetidin-1-yl]-3,4-dimethyl-pyrimido [4′,5′:4,5]thieno[2,3-c] pyridazine dihydrochloride]	–	–	EC50 [3]: 1710 nM; Emax [4]: 65.7%
Cc1nnc2oc3c(NC4CC4)ncnc3c2c1C [Compound 68, N-cyclopropyl-3,4-dimethyl-pyrimido [4′,5′:4,5]furo[2,3-c]pyridazin-8-amine]	–	–	Emax [5]: 66.5%; EC50 [6]: 1310 nM
Cc1cc(C)c(CNc2ncnc3c2sc2nnc(C)c(C)c23)cn1 [Compound 147, N-[(4,6-dimethyl-3-pyridyl)methyl]-3,4-dimethyl-pyrimido [4′,5′:4,5]thieno[2,3-c] pyridazin-8-amine hydrochloride]	429	–	Emax: 85.8%
Cc1nnc2sc3c(NCc4ccc(C(C)(C)N)cc4)ncnc3c2c1C [Compound 371, N-[[4-(1-amino-1-methyl-ethyl)phenyl]methyl]-3,4-dimethyl-pyrimido[4′,5′:4,5] thieno[2,3-c]pyridazin-8-amine]	–	–	EC50 [3]: 41.6 nM; Emax [4]: 93.6%
Cc1ccc(O[C@H]2CCN(c3ncnc4c3sc3nnc(C)c(C)c34)C2)cn1 [Compound 364, 3,4-dimethyl-8-[(3S)-3-[(6-methyl-3-pyridyl)oxy]pyrrolidin-1-yl]pyrimido [4′,5′:4,5]thieno[2,3-c] pyridazine dihydrochloride]	–	–	EC50 [3]: 423 nM; Emax [4]: 50.7%
Cc1nc2sc3c(NCc4ccc(C(C)(C)O)c(F)c4)ncnc3c2c(C)c1Cl [Compound 278, 2-[4-[[(8-chloro-7,9-dimethyl-pyrido [3′,2′:4,5]thieno[3,2-d]pyrimidin-4-yl)amino]methyl]-2-fluoro-phenyl] propan-2-ol]	3800	37	–
Cc1nnc2sc3c(N4Cc5ccc(C(C)(C)O)cc5C4)ncnc3c2c1C [Compound 142, 2-[2-(3,4-dimethylpyrimido [4′,5′:4,5]thieno[2,3-c]pyridazin-8-yl)isoindolin-5-yl]propan-2-ol; 2,2,2-trifluoroacetic acid]	1250	53.6	–
